Assay results as given in the NIST ThermoML archive (doi:10.1021/acs.jced.6b00365).

Conditions: dynamic light scattering

CCOC(C)(C)C [2-ethoxy-2-methylpropane]
Conditions	thermal diffusivity [m2/s]
293.13 K, Liquid	5.67e-08
303.09 K, Liquid	5.45e-08
313.21 K, Liquid	5.16e-08
323.18 K, Liquid	4.96e-08
333.18 K, Liquid	4.79e-08
338.25 K, Liquid	4.7e-08
343.17 K, Liquid	4.64e-08
348.15 K, Liquid	4.55e-08
353.08 K, Liquid	4.49e-08
358.19 K, Liquid	4.43e-08
363.1 K, Liquid	4.38e-08
368.12 K, Liquid	4.33e-08
373.11 K, Liquid	4.3e-08
378.18 K, Liquid	4.26e-08
383.14 K, Liquid	4.2e-08
388.07 K, Liquid	4.17e-08
393.06 K, Liquid	4.15e-08
398.17 K, Liquid	4.1e-08
403.22 K, Liquid	4.08e-08
408.16 K, Liquid	4.02e-08
413.1 K, Liquid	4e-08
418.18 K, Liquid	3.97e-08
423.09 K, Liquid	3.95e-08
428.08 K, Liquid	3.9e-08
433.07 K, Gas	3.03e-07
433.18 K, Liquid	3.85e-08
438.17 K, Liquid	3.82e-08
443.06 K, Liquid	3.77e-08
443.25 K, Gas	2.57e-07
448.18 K, Liquid	3.74e-08
453.13 K, Gas	2.14e-07
453.18 K, Liquid	3.68e-08
458.1 K, Liquid	3.61e-08
463.05 K, Gas	1.7e-07
463.19 K, Liquid	3.53e-08
466.12 K, Liquid	3.5e-08
468.16 K, Gas	1.5e-07
469.18 K, Liquid	3.45e-08
472.09 K, Liquid	3.39e-08
473.25 K, Gas	1.28e-07
475.06 K, Liquid	3.33e-08
478.15 K, Liquid	3.25e-08
478.2 K, Gas	1.08e-07
481.24 K, Liquid	3.16e-08
483.18 K, Gas	8.76e-08
484.23 K, Liquid	3.05e-08
487.17 K, Liquid	2.95e-08
488.25 K, Gas	6.52e-08
490.09 K, Liquid	2.77e-08
493.14 K, Liquid	2.63e-08
493.22 K, Gas	3.68e-08
496.24 K, Liquid	2.27e-08

Liquid
Conditions	thermal diffusivity [m2/s]
372.96 K, 4000 kPa	4.4e-08
373.15 K, 7000 kPa	4.47e-08
373.16 K, 10000 kPa	4.5e-08
383.18 K, 10000 kPa	4.45e-08
383.35 K, 7000 kPa	4.41e-08
383.37 K, 4000 kPa	4.34e-08
392.97 K, 7000 kPa	4.35e-08
393 K, 4000 kPa	4.27e-08
393.05 K, 10000 kPa	4.4e-08
402.94 K, 4000 kPa	4.2e-08
402.99 K, 7000 kPa	4.28e-08
403.09 K, 10000 kPa	4.35e-08
413.25 K, 10000 kPa	4.3e-08
413.34 K, 7000 kPa	4.21e-08
413.35 K, 4000 kPa	4.12e-08
421.78 K, 4000 kPa	4.07e-08
421.86 K, 7000 kPa	4.16e-08
422.25 K, 10000 kPa	4.24e-08
431.42 K, 4000 kPa	4e-08
431.52 K, 7000 kPa	4.1e-08
432.83 K, 10000 kPa	4.18e-08
442.12 K, 4000 kPa	3.92e-08
442.19 K, 7000 kPa	4.04e-08
442.53 K, 10000 kPa	4.13e-08
452.09 K, 4000 kPa	3.85e-08
452.26 K, 7000 kPa	3.98e-08
452.4 K, 10000 kPa	4.08e-08
462.41 K, 4000 kPa	3.75e-08
462.47 K, 7000 kPa	3.92e-08
462.95 K, 10000 kPa	4.03e-08
472.45 K, 4000 kPa	3.65e-08
472.63 K, 7000 kPa	3.87e-08
472.63 K, 10000 kPa	3.99e-08
478.13 K, 10000 kPa	3.97e-08
478.14 K, 7000 kPa	3.84e-08
478.2 K, 4000 kPa	3.6e-08
482.44 K, 4000 kPa	3.52e-08
483.15 K, 7000 kPa	3.82e-08
483.2 K, 10000 kPa	3.95e-08
488.15 K, 7000 kPa	3.79e-08
488.65 K, 4000 kPa	3.44e-08
488.83 K, 10000 kPa	3.93e-08
493.13 K, 4000 kPa	3.34e-08
493.16 K, 7000 kPa	3.77e-08
493.3 K, 10000 kPa	3.92e-08

Cc1ccccc1 [toluene]
Liquid
Conditions	thermal diffusivity [m2/s]
302.9 K	8.63e-08
312.45 K	8.33e-08
323.07 K	8.03e-08
333.27 K	7.77e-08
343.52 K	7.52e-08
353.73 K	7.3e-08
363.73 K	7.09e-08
373.04 K	6.9e-08
382.94 K	6.71e-08
392.88 K	6.52e-08
402.93 K	6.33e-08
413.06 K	6.15e-08
422.73 K	5.98e-08
432.67 K	5.81e-08
442.68 K	5.64e-08
452.96 K	5.48e-08
462.99 K	5.33e-08
473.2 K	5.19e-08
482.98 K	5.06e-08
493.05 K	4.94e-08
503.17 K	4.84e-08
513.41 K	4.74e-08
523.38 K	4.66e-08

CCC(C)(C)OC [2-methoxy-2-methylbutane]
Conditions	thermal diffusivity [m2/s]
291.5 K, Liquid	6.65e-08
302.19 K, Liquid	6.36e-08
312.11 K, Liquid	6.17e-08
323 K, Liquid	5.95e-08
332.51 K, Liquid	5.75e-08
342.71 K, Liquid	5.5e-08
352.32 K, Liquid	5.33e-08
363.24 K, Liquid	5.18e-08
373.18 K, Liquid	5e-08
382.92 K, Liquid	4.84e-08
388.1 K, Liquid	4.75e-08
392.6 K, Liquid	4.68e-08
398.45 K, Liquid	4.61e-08
402.91 K, Liquid	4.55e-08
418.23 K, Liquid	4.36e-08
423 K, Liquid	4.3e-08
428.55 K, Liquid	4.24e-08
432.78 K, Liquid	4.2e-08
438.24 K, Liquid	4.14e-08
442.67 K, Liquid	4.1e-08
448.19 K, Liquid	4.04e-08
453.53 K, Liquid	3.98e-08
458.62 K, Liquid	3.95e-08
463.3 K, Liquid	3.9e-08
468.1 K, Liquid	3.87e-08
472 K, Liquid	3.83e-08
477.88 K, Gas	2.54e-07
478.34 K, Liquid	3.81e-08
482.92 K, Liquid	3.78e-08
483.74 K, Gas	2.3e-07
487.65 K, Gas	2.13e-07
488.23 K, Liquid	3.75e-08
492.26 K, Liquid	3.71e-08
493.04 K, Gas	1.9e-07
498.77 K, Liquid	3.63e-08
499.05 K, Gas	1.63e-07
501.9 K, Liquid	3.6e-08
502.72 K, Gas	1.45e-07
504.05 K, Liquid	3.58e-08
506.94 K, Liquid	3.52e-08
508.18 K, Gas	1.21e-07
508.48 K, Liquid	3.51e-08
511.05 K, Liquid	3.42e-08
511.38 K, Gas	1.05e-07
514.02 K, Liquid	3.36e-08
517.41 K, Gas	7.83e-08
517.73 K, Liquid	3.2e-08
519.01 K, Liquid	3.15e-08
522.19 K, Liquid	2.98e-08
522.45 K, Gas	4.2e-08

Liquid
Conditions	thermal diffusivity [m2/s]
373.1 K, 7000 kPa	5.35e-08
373.11 K, 4000 kPa	5.2e-08
373.12 K, 10000 kPa	5.47e-08
382.8 K, 4000 kPa	5.08e-08
382.83 K, 7000 kPa	5.23e-08
382.94 K, 10000 kPa	5.36e-08
392.61 K, 4000 kPa	4.9e-08
392.63 K, 7000 kPa	5.09e-08
392.73 K, 10000 kPa	5.23e-08
402.72 K, 4000 kPa	4.77e-08
402.77 K, 7000 kPa	4.93e-08
402.81 K, 10000 kPa	5.07e-08
412.73 K, 4000 kPa	4.66e-08
412.76 K, 7000 kPa	4.81e-08
412.86 K, 10000 kPa	4.94e-08
422.87 K, 10000 kPa	4.82e-08
423 K, 4000 kPa	4.52e-08
423.06 K, 7000 kPa	4.69e-08
432.66 K, 4000 kPa	4.42e-08
432.76 K, 7000 kPa	4.59e-08
432.8 K, 10000 kPa	4.72e-08
442.61 K, 4000 kPa	4.31e-08
442.7 K, 7000 kPa	4.47e-08
442.73 K, 10000 kPa	4.6e-08
453.25 K, 10000 kPa	4.51e-08
453.47 K, 4000 kPa	4.2e-08
453.58 K, 7000 kPa	4.37e-08
463.14 K, 4000 kPa	4.14e-08
463.21 K, 7000 kPa	4.31e-08
463.25 K, 10000 kPa	4.44e-08
472.15 K, 4000 kPa	4.08e-08
472.25 K, 7000 kPa	4.26e-08
472.35 K, 10000 kPa	4.39e-08
478.13 K, 10000 kPa	4.36e-08
478.14 K, 7000 kPa	4.22e-08
478.39 K, 4000 kPa	4.06e-08
483.16 K, 7000 kPa	4.19e-08
483.16 K, 10000 kPa	4.32e-08
483.31 K, 4000 kPa	4.02e-08
488.17 K, 7000 kPa	4.16e-08
488.18 K, 10000 kPa	4.29e-08
488.54 K, 4000 kPa	3.98e-08
492.58 K, 4000 kPa	3.96e-08
493.13 K, 7000 kPa	4.13e-08
493.14 K, 10000 kPa	4.26e-08
498.16 K, 10000 kPa	4.22e-08
498.25 K, 7000 kPa	4.08e-08
499 K, 4000 kPa	3.9e-08
503.15 K, 10000 kPa	4.18e-08
503.16 K, 4000 kPa	3.85e-08
503.2 K, 7000 kPa	4.04e-08
508.09 K, 7000 kPa	3.99e-08
508.14 K, 10000 kPa	4.15e-08
508.25 K, 4000 kPa	3.8e-08
512.28 K, 4000 kPa	3.72e-08
512.29 K, 7000 kPa	3.94e-08
512.53 K, 10000 kPa	4.12e-08
517.79 K, 4000 kPa	3.63e-08
517.85 K, 7000 kPa	3.9e-08
518.05 K, 10000 kPa	4.08e-08
523.25 K, 4000 kPa	3.53e-08
523.25 K, 7000 kPa	3.84e-08
523.25 K, 10000 kPa	4.05e-08
